ChEMBL document CHEMBL1909046, “DrugMatrix in vitro pharmacology data”
pIC50, pKi: −log10 of the molar value.

Key:
[1] = target: Beta-1 adrenergic receptor (Homo sapiens, UniProt P08588); assay: DRUGMATRIX: Adrenergic beta1 radioligand binding (ligand: [125I] Cyanopindolol); assay type: cell membranes, CHO-K1, Membrane; conditions: cho-k1; Not Active = under 50% inhibition at 10 µM
[2] = target: Vascular endothelial growth factor receptor 1 (Homo sapiens, UniProt P17948); assay: biochemical; assay type: cell-based, HUVEC; conditions: huvec; note: in other assays of this panel Not Active means under 50% inhibition at 10 µM
Chain of Vascular endothelial growth factor receptor 1 (P17948 whole entry): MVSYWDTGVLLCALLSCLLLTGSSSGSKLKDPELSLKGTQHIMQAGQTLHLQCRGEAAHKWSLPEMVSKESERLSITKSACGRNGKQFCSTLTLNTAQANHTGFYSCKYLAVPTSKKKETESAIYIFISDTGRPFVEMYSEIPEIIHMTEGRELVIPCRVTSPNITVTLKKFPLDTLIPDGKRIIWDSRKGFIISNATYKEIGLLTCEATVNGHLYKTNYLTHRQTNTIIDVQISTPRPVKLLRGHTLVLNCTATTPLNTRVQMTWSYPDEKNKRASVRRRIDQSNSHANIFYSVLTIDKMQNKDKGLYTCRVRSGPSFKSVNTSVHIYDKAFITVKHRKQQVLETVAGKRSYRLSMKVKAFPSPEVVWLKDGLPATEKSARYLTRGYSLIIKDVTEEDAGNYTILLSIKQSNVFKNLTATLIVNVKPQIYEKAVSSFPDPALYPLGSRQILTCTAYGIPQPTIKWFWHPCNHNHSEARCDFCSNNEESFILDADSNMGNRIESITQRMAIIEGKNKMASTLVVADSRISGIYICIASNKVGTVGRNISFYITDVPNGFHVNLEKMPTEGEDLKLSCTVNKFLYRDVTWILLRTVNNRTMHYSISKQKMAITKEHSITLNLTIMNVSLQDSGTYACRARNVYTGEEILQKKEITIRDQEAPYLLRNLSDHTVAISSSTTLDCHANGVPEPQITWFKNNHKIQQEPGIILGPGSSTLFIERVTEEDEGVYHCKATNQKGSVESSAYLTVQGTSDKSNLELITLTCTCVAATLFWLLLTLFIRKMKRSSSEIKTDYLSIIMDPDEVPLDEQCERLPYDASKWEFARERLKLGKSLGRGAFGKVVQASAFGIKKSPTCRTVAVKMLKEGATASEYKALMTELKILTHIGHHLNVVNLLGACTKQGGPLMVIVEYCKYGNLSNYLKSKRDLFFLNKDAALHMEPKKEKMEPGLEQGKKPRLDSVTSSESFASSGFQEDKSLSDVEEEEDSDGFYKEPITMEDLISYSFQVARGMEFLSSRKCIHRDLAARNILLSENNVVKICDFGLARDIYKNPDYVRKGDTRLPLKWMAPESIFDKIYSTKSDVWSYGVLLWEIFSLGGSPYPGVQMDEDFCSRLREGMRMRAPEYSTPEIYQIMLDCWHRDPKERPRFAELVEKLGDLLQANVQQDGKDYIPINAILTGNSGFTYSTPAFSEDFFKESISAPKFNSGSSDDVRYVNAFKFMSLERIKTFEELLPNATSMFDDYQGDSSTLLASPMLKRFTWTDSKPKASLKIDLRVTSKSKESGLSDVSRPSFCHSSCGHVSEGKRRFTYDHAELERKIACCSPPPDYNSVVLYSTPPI

Melanocortin receptor 4 = Melanocortin receptor 4 (Homo sapiens, UniProt P32245); assay type: cell membranes, HEK293, Membrane; conditions: hek293; note: in other assays of this panel Not Active means under 50% inhibition at 10 µM
Chain of Melanocortin receptor 4 (P32245 whole entry): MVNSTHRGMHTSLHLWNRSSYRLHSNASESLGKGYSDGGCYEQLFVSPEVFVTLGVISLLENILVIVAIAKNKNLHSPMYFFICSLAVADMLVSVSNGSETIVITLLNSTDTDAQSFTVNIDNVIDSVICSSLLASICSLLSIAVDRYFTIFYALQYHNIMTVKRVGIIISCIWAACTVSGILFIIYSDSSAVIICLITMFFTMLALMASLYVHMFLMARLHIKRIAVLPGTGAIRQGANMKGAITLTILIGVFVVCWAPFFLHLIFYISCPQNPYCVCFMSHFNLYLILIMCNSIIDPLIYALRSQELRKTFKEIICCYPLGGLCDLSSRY

[3] = target: Protein kinase C alpha type (Homo sapiens, UniProt P17252); assay type: cell-based; conditions: sf9;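 note: inhibition of PKCalpha kinase activity measured in an enzyme assay with histone as the phosphorylation substrate; in other assays of this panel Not Active means under 50% inhibition at 10 µM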
Adenosine receptor A3 = target: T1, Adenosine receptor A3 (Homo sapiens, UniProt P0DMS8); assay type: cell membranes, CHO-K1, Membrane; conditions: cho-k1;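 note: radioligand binding assay with AB-MECA serving as the labeled ligand; in other assays of this panel Not Active means under 50% inhibition at 10 µM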
T1 sequence (P0DMS8 whole entry): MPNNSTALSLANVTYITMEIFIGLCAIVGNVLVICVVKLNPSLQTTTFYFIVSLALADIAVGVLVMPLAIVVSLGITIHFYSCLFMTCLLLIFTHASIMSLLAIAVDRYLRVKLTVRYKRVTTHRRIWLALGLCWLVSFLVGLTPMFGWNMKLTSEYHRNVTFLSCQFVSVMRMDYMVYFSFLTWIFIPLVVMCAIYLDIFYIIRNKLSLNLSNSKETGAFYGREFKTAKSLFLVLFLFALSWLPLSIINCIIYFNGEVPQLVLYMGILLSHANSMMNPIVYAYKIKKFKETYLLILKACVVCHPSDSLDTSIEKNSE

Chain of Beta-1 adrenergic receptor (P08588 whole entry): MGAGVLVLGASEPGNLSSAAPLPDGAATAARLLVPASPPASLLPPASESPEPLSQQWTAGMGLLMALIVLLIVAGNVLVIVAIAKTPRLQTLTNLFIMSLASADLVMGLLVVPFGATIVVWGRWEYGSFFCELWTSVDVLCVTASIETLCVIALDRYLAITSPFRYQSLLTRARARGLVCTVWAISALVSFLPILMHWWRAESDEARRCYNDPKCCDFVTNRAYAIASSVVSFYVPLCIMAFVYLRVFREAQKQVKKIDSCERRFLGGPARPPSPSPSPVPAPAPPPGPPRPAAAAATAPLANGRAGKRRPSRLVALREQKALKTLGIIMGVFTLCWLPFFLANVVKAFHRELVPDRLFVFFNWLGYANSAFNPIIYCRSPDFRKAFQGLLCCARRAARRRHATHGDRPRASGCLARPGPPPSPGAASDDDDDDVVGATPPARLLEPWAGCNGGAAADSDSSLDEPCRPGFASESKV

| Compound | IC50 [1] | IC50 [2] | IC50 (Melanocortin receptor 4) | IC50 [3] | IC50 (Adenosine receptor A3) | Ki [1] | Ki [2] | Ki (Melanocortin receptor 4) | Ki [3] | pIC50 (Adenosine receptor A3; read-out: IC50) | pKi (Adenosine receptor A3; read-out: Ki) | Ki (Adenosine receptor A3) | pIC50 (Melanocortin receptor 4; read-out: IC50) | pKi (Melanocortin receptor 4; read-out: Ki) |
| --- | --- | --- | --- | --- | --- | --- | --- | --- | --- | --- | --- | --- | --- | --- |
| NC(=O)C[S+]([O-])C(c1ccccc1)c1ccccc1 (stereo not given) [MODAFINIL] | Not Active | Not Active | Not Active | Not Active | Not Active |  |  |  |  |  |  |  |  |  |
| CCN(CC)CCOCCC1=CCC2CC1C2(C)C (stereo not given) [MYRTECAINE] | Not Active | Not Active | Not Active | Not Active | Not Active |  |  |  |  |  |  |  |  |  |
| O=C(O)c1cccnc1Nc1cccc(C(F)(F)F)c1 [NIFLUMIC ACID] | Not Active | Not Active | Not Active | Not Active | Not Active |  |  |  |  |  |  |  |  |  |
| O=C(N/N=C/c1ccc([N+](=O)[O-])o1)c1cc([N+](=O)[O-])cc([N+](=O)[O-])c1O [NIFURSOL] | Not Active | Not Active | Not Active | Not Active | Not Active |  |  |  |  |  |  |  |  |  |
| COC(=O)Nc1nc2ccc(C(=O)c3cccs3)cc2[nH]1 [NOCODAZOLE] | Not Active | Not Active | Not Active | Not Active | Not Active |  |  |  |  |  |  |  |  |  |
| C#CC1(O)CC[C@H]2[C@@H]3CCC4=CC(=O)CC[C@@H]4[C@H]3CC[C@@]21CC (stereo not given in full) [NORGESTREL] | Not Active | Not Active | Not Active | Not Active | Not Active |  |  |  |  |  |  |  |  |  |
| COC(=O)Nc1nc2ccc([S+]([O-])c3ccccc3)cc2[nH]1 (stereo not given) [OXFENDAZOLE] | Not Active | Not Active | Not Active | Not Active | Not Active |  |  |  |  |  |  |  |  |  |
| CC(=O)O[C@H]1C(=O)[C@@]2(C)[C@H]([C@H](OC(=O)c3ccccc3)[C@]3(O)C[C@H](OC(=O)[C@H](O)[C@@H](NC(=O)c4ccccc4)c4ccccc4)C(C)=C1C3(C)C)[C@]1(OC(C)=O)CO[C@@H]1C[C@@H]2O [PACLITAXEL] | Not Active | Not Active | Not Active | Not Active | Not Active |  |  |  |  |  |  |  |  |  |
| C[n+]1ccc(-c2cc[n+](C)cc2)cc1.[Cl-].[Cl-] [PARAQUAT DICHLORIDE] | Not Active | Not Active | Not Active | Not Active | Not Active |  |  |  |  |  |  |  |  |  |
| CCn1cc(C(=O)O)c(=O)c2cnc(N3CCCC3)nc21 [PIROMIDIC ACID] | Not Active | Not Active | Not Active | Not Active | Not Active |  |  |  |  |  |  |  |  |  |
| C[n+]1ccccc1/C=N/O.[Cl-] [PRALIDOXIME CHLORIDE] | Not Active | Not Active | Not Active | Not Active | Not Active |  |  |  |  |  |  |  |  |  |
| COc1cc2nc(N3CCN(C(=O)c4ccco4)CC3)nc(N)c2cc1OC [PRAZOSIN] | Not Active | Not Active | Not Active | Not Active | Not Active |  |  |  |  |  |  |  |  |  |
| C[C@]12C=CC(=O)C=C1CC[C@@H]1[C@@H]2[C@@H](O)C[C@@]2(C)[C@H]1CC[C@]2(O)C(=O)CO [PREDNISOLONE] | Not Active | Not Active | Not Active | Not Active | Not Active |  |  |  |  |  |  |  |  |  |
| CC(=O)[C@H]1[C@H](C#N)C[C@H]2[C@@H]3CC=C4C[C@@H](O)CC[C@]4(C)[C@H]3CC[C@@]21C [PREGNENOLONE CARBONITRILE] | Not Active | Not Active | Not Active | Not Active | Not Active |  |  |  |  |  |  |  |  |  |
| CCCN(CCC)S(=O)(=O)c1ccc(C(=O)O)cc1 [PROBENECID] | Not Active | Not Active | Not Active | Not Active | Not Active |  |  |  |  |  |  |  |  |  |
| CCCOc1ccc(C(=O)OCCN(CC)CC)cc1N [PROPARACAINE] | Not Active | Not Active | Not Active | Not Active | Not Active |  |  |  |  |  |  |  |  |  |
| CC(C)c1cccc(C(C)C)c1O [PROPOFOL] | Not Active | Not Active | Not Active | Not Active | Not Active |  |  |  |  |  |  |  |  |  |
| C[C@@H]1O[C@@H](O[C@@H]2C=C3CC[C@@H]4[C@H](CC[C@]5(C)[C@@H](c6ccc(=O)oc6)CC[C@]45O)[C@@]3(C)CC2)[C@H](O)[C@H](O)[C@H]1O [PROSCILLARIDIN] | Not Active | Not Active | Not Active | Not Active | Not Active |  |  |  |  |  |  |  |  |  |
| Oc1cccc(O)c1O [PYROGALLOL] | Not Active | Not Active | Not Active | Not Active | Not Active |  |  |  |  |  |  |  |  |  |
| AURANOFIN | Not Active | Not Active | Not Active | Not Active |  | Not Active | Not Active | Not Active | Not Active | 5.77 | 6.02 |  |  |  |
| GADOPENTETATE DIMEGLUMINE | Not Active | Not Active | Not Active | Not Active | Not Active | Not Active | Not Active | Not Active | Not Active |  |  | Not Active |  |  |
| GENTAMICIN | Not Active | Not Active | Not Active | Not Active | Not Active | Not Active | Not Active | Not Active | Not Active |  |  | Not Active |  |  |
| GRAMICIDIN | Not Active | Not Active |  | Not Active | Not Active | Not Active | Not Active |  | Not Active |  |  | Not Active | 5.48 | 5.50 |
| NYSTATIN | Not Active | Not Active | Not Active | Not Active | Not Active | Not Active | Not Active | Not Active | Not Active |  |  | Not Active |  |  |
